ChEMBL document CHEMBL1201862, “PubChem BioAssay data set” (2004)
The source made the active and inactive calls.

Experiments:
[1] = molecular target: Aryl hydrocarbon receptor (Homo sapiens, UniProt P35869); experiment: Luminescence-based cell-based high throughput dose response assay for activators of the Aryl Hydrocarbon Receptor (AHR). [Related pubchem assays: 2796 (Primary screen (AHR activators in singlicate)), 2845 (Confirmation screen (AHR activators in triplicate)), 434939 (Counterscreen (PXR activators in triplicate)), 2804 (Summary (AHR activators))]; assay type: ADME
Chain of Aryl hydrocarbon receptor (P35869 whole entry): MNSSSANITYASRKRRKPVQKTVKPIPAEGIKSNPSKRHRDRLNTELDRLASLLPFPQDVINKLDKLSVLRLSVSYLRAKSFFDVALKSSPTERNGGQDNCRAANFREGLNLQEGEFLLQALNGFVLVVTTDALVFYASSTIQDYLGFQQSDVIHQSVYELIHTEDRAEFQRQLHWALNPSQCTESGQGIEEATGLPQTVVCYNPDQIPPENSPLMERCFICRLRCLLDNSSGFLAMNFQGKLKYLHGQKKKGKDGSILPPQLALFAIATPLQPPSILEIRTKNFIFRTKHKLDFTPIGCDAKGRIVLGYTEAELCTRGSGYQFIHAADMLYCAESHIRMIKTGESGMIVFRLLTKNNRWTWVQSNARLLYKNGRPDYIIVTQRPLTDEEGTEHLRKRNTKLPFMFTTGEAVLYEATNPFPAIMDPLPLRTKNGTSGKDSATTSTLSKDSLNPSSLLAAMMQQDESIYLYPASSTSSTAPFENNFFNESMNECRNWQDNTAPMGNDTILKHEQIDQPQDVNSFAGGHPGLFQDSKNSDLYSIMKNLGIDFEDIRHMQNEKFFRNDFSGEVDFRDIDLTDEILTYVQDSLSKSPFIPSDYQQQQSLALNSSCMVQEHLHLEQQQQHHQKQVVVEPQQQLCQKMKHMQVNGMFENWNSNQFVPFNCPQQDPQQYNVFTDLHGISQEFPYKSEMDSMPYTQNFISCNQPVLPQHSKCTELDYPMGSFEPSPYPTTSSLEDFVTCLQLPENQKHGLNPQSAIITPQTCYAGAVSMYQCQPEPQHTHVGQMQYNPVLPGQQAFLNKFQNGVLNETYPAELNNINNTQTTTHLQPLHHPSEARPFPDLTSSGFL

[2] = molecular target: Dual specificity protein phosphatase 6 (Rattus norvegicus, UniProt Q64346); experiment: inhibition of rat DUSP6 enzyme activity – biochemical, in vitro, primary screen (AID 425)
Chain of Dual specificity protein phosphatase 6 (Q64346 whole entry): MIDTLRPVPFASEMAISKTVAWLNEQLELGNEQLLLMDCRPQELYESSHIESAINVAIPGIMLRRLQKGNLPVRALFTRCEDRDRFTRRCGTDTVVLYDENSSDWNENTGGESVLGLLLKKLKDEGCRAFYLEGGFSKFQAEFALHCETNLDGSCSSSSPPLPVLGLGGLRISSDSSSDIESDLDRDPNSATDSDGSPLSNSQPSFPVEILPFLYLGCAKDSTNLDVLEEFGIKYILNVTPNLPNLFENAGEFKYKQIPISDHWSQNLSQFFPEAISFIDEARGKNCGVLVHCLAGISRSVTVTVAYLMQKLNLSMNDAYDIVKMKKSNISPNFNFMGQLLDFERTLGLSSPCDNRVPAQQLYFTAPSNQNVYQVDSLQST

[3] = molecular target: T1, Rac GTPase-activating protein 1 (Homo sapiens, UniProt Q9H0H5); experiment: blockers of MgcRacGAP-driven Rac1 GTP hydrolysis – biochemical, ADP Hunter fluorescence, primary and confirmatory, confirmation (AID 624330); assay type: functional
T1 sequence (Q9H0H5 whole entry): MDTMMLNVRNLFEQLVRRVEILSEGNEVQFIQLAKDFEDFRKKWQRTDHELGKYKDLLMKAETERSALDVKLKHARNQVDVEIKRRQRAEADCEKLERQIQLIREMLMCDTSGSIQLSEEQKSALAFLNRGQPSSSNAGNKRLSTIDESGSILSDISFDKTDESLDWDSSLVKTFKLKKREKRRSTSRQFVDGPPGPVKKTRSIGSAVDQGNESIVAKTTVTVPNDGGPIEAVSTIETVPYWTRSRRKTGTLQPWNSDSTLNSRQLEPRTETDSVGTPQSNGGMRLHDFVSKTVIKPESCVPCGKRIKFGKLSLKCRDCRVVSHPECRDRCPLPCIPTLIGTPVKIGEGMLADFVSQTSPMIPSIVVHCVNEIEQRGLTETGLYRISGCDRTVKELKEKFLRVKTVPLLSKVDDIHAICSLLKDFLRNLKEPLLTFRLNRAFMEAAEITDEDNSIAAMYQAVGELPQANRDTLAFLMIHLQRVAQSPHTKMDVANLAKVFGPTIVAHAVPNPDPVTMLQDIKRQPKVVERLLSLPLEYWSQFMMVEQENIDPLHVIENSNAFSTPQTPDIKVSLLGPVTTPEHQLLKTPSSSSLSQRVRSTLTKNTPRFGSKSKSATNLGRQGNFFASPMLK

INS1 = experiment: INS-1E survival protection against cytokine death – cell-based, luminescence, retest, dose response (AID 449756); assay type: functional; conditions: Rattus norvegicus;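 further: cell death triggered by IL-1 beta plus TNF-alpha plus IFN-gamma mixture; protective hits raise ATP signal compared with cytokine alone wells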
[4] = molecular target: T2, Calpain-2 catalytic subunit (Sus scrofa, UniProt P43367); experiment: m-calpain protease blockers, concentration series – biochemical, fluorogenic peptide substrate, dose response (AID 1420); assay type: functional
T2 sequence (P43367 whole entry): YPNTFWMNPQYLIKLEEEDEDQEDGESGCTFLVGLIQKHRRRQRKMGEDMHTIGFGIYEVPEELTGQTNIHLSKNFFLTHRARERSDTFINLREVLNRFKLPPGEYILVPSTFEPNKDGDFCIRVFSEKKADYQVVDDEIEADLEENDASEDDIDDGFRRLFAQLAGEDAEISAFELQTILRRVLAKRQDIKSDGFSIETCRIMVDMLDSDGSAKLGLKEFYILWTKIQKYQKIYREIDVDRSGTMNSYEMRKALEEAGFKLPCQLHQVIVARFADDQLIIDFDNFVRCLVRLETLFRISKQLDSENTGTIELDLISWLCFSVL

[5] = Luminescent dose response cell-based high throughput screening assay for inhibitors of the Janus kinase 2 mutant JAK2V617F. [Related pubchem assays: 1446 (Primary screen.), 1521 (Confirmation assay.), 1486 (Counter screen.)]; assay type: functional
[6] = viability loss in HeLa cells – cytotoxicity control for MgcRacGAP inhibitor project, dose response (AID 624300); assay type: functional
[7] = molecular target: Luciferin 4-monooxygenase (Photinus pyralis, UniProt P08659); experiment: inhibition of purified Photinus pyralis luciferase – biochemical, luminescence, dose response (AID 1891)
Chain of Luciferin 4-monooxygenase (P08659 whole entry): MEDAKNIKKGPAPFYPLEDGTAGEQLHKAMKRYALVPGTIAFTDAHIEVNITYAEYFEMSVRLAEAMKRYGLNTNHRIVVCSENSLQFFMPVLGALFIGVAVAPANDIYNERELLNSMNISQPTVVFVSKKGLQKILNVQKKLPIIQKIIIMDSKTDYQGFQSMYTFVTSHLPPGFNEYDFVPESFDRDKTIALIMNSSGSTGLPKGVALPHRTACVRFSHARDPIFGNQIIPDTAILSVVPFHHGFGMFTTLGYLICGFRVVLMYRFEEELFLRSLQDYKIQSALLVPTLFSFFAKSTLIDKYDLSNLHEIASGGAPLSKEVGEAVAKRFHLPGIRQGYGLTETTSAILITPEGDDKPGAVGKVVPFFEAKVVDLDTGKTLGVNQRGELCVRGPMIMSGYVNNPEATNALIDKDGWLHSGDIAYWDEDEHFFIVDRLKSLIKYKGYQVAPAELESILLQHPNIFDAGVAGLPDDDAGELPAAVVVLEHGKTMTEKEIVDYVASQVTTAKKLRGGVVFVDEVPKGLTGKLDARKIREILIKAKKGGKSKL

[8] = Luminescence Cell-Based Dose Response HTS to Identify Inhibitors of 5'UTR Stem-Loop Driven Prion Protein mRNA Translation in H4 Neuroglioblastoma Cells. [Related pubchem assays: 1827 (Project Summary), 1813 (Primary HTS)]; assay type: functional
[9] = Luminescence Cell-Based Dose Confirmation HTS to Identify Inhibitors of Platelet Dense Granule Release. [Related pubchem assays: 1663 (Primary HTS), 1678 (Summary of Project)]; assay type: functional
[10] = molecular target: T3, Replicative DNA helicase DnaB (Mycobacterium tuberculosis, UniProt P9WMR3); experiment: DnaB intein splicing inhibitors, dose response, biochemical, cell-free fluorescence (AID 449749); assay type: functional
T3 sequence (P9WMR3 whole entry): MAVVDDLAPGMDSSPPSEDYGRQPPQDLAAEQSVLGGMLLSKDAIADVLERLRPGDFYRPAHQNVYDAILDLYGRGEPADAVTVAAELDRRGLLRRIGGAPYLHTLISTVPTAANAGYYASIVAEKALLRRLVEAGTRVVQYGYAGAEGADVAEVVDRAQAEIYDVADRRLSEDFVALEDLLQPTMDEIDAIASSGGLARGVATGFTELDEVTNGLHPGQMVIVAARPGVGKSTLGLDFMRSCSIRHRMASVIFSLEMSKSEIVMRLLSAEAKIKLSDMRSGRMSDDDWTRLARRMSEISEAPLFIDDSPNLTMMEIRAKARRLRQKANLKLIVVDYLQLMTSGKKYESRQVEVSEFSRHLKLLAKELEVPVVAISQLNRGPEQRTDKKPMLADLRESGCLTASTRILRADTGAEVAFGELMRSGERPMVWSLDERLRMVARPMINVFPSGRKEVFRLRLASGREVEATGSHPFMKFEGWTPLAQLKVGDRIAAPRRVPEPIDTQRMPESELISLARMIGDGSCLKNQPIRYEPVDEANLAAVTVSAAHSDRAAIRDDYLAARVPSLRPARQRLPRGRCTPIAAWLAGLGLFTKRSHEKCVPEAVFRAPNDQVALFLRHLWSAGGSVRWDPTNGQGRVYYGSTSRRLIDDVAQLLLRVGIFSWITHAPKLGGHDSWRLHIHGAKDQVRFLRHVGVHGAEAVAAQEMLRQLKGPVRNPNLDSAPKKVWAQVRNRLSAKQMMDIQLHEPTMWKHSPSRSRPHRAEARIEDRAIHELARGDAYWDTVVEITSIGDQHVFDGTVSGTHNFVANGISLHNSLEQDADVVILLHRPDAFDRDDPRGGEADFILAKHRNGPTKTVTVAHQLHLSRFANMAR

Protein RecA = molecular target: T4, Protein RecA (Mycobacterium tuberculosis, UniProt P9WHJ3); experiment: Fluorescence Cell-Free Homogeneous Dose Retest to Identify Inhibitors of RecA-Intein Splicing Activity. [Related pubchem assays (depositor defined):AID2097, AID2223, AID489010, AID492950]; assay type: functional
T4 sequence (P9WHJ3 whole entry): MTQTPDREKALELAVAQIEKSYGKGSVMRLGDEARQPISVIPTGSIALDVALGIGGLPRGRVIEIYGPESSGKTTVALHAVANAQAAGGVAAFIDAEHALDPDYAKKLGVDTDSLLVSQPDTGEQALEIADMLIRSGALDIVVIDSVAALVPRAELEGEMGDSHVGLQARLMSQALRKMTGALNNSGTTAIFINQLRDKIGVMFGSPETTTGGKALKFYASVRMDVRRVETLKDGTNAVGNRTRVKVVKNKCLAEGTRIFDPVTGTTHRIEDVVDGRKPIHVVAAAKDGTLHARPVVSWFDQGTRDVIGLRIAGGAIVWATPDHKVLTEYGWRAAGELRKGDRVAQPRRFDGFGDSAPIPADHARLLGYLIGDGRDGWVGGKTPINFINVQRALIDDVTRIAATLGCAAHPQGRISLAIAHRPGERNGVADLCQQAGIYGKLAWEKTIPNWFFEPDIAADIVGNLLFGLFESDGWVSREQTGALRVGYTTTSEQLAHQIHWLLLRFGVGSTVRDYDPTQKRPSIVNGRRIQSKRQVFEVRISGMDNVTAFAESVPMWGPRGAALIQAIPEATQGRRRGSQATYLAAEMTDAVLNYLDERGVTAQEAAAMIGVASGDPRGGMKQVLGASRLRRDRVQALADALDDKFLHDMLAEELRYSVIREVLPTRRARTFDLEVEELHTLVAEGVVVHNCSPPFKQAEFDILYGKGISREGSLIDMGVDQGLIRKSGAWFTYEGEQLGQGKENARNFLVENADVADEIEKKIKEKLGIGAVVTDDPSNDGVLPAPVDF

Cytochrome P450 3A4 = Cytochrome P450 3A4 (Homo sapiens, UniProt P08684); conditions: Potency;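 further: confirmatory qHTS run detecting inhibitors and substrates of CYP3A4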
Chain of Cytochrome P450 3A4 (P08684 whole entry): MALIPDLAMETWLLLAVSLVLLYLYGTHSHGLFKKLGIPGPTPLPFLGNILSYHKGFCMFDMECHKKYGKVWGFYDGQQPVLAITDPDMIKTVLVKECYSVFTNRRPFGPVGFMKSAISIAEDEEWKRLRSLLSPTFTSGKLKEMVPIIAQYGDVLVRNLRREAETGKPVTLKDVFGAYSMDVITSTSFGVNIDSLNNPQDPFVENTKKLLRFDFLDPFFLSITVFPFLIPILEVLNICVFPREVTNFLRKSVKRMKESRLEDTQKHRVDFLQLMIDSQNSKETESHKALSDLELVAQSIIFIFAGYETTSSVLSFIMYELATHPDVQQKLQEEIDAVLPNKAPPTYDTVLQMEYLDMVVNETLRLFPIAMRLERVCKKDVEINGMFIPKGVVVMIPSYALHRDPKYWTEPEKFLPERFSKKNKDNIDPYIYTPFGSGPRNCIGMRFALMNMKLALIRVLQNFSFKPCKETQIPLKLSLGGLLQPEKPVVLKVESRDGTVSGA

Cytochrome P450 2C19 = Cytochrome P450 2C19 (Homo sapiens, UniProt P33261); experiment: qHTS Assay for Inhibitors and Substrates of Cytochrome P450 2C19. [Related pubchem assays: 410 ]; assay type: ADME; conditions: read-out: Potency
Chain of Cytochrome P450 2C19 (P33261 whole entry, the tested form may be a part): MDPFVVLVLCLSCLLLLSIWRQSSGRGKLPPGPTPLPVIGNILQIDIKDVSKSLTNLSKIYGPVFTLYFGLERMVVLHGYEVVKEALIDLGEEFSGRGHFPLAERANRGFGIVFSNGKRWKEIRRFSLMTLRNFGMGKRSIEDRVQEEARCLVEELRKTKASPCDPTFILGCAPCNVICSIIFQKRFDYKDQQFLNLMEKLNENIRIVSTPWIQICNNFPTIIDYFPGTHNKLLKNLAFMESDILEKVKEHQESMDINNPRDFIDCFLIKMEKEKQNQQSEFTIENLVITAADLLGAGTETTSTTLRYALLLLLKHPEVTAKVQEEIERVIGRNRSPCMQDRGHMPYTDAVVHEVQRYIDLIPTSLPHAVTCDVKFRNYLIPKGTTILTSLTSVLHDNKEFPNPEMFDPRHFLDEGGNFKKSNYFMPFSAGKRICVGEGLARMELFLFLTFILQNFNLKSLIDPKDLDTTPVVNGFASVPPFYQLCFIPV

[11] = molecular target: T5, Polyadenylate-binding protein 1 (Homo sapiens, UniProt P11940); experiment: MLLE domain peptide-binding blockers, IC50 – biochemical, fluorescence polarization, FITC-PAM2 peptide, dose response (AID 602259); assay type: functional; conditions: read-out: IC50_Mean
T5 sequence (P11940 whole entry, the tested form may be a part): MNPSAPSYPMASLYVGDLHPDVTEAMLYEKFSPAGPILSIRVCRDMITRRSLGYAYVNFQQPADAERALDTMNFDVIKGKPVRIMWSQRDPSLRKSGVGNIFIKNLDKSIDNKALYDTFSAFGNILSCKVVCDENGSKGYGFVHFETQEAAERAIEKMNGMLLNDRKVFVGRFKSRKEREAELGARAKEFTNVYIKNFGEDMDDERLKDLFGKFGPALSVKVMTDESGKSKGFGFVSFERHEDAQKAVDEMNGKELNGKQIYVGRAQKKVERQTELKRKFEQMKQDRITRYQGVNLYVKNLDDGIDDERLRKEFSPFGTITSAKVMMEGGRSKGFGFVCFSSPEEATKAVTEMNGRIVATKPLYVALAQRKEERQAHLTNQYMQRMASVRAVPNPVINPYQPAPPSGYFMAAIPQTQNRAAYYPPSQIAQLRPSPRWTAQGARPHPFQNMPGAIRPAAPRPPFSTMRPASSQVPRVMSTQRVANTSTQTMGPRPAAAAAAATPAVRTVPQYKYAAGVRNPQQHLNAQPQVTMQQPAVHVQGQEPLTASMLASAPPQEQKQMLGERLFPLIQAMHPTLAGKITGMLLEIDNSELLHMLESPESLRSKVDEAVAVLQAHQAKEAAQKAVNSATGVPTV

[12] = molecular target: Long-chain-fatty-acid--AMP ligase FadD28 (Mycobacterium tuberculosis, UniProt P9WQ59); experiment: Fluorescence polarization aasay to screen for inhibitors that compete for the binding of FadD28 to a bisubstrate Measured in Biochemical System Using Plate Reader - 2147-01_Inhibitor_Dose_CherryPick_Activity.; assay type: functional, Mycobacterium tuberculosis H37Rv
Chain of Long-chain-fatty-acid--AMP ligase FadD28 (P9WQ59 whole entry): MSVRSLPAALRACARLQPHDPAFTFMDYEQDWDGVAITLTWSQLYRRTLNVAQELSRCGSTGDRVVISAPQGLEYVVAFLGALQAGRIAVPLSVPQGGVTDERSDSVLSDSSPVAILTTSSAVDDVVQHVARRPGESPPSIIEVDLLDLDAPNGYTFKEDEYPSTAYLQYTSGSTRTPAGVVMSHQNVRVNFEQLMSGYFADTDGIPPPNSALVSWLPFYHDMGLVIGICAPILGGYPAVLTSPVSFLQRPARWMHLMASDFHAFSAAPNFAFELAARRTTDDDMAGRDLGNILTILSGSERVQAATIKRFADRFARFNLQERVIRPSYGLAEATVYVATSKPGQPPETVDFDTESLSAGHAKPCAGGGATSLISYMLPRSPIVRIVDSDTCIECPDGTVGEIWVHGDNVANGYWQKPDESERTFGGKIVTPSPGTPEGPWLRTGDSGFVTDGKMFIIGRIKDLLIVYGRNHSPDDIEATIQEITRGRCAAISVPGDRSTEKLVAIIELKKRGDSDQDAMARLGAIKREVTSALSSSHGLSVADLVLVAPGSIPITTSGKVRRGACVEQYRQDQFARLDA

[13] = molecular target: T5, Polyadenylate-binding protein 1; experiment: MLLE binding blockers, Cy5 peptide tracer – biochemical, fluorescence polarization, Cy5-PAM2 peptide, secondary, miRNA deadenylation inhibitor project, dose response (AID 602260); assay type: functional; conditions: read-out: IC50_Mean
[14] = molecular target: T6, Female germline-specific tumor suppressor gld-1 (Caenorhabditis elegans, UniProt Q17339); experiment: blockers of GLD-1/TGE RNA complex formation – biochemical, fluorescence polarization, C. elegans, dose response (AID 2802);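 further: fluorescence polarization of labeled TGE RNA bound by purified gld-1 protein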
T6 sequence (Q17339 whole entry): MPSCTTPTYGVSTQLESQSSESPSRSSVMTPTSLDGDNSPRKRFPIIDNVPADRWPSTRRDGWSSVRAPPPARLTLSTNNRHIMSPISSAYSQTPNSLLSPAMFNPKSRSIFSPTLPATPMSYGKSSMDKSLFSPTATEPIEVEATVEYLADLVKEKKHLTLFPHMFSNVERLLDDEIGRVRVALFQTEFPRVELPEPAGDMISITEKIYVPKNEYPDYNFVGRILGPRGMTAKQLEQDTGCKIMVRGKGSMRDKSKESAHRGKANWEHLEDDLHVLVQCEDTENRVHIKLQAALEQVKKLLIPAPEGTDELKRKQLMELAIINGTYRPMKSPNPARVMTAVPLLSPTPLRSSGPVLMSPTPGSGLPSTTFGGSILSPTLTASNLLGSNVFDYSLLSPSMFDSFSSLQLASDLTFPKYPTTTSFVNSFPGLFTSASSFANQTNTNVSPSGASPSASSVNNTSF

14-3-3 protein gamma = 14-3-3 protein gamma (Homo sapiens, UniProt P61981); experiment: modulators of 14-3-3 gamma client binding – dose response (AID 711); assay type: functional
Chain of 14-3-3 protein gamma (P61981 whole entry): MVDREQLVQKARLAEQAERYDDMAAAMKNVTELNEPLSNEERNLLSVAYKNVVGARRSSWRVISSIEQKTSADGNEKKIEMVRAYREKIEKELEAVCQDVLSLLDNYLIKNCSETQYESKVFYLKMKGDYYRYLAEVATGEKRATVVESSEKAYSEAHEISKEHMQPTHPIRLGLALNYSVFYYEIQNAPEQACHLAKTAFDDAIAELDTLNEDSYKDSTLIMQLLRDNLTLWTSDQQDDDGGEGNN

Protein Rev = molecular target: T7, Protein Rev (Human immunodeficiency virus type 1 group M subtype B (isolate HXB2)(HIV-1), UniProt P04618); experiment: blockers of HIV Rev/RRE RNA complex – biochemical, fluorescence polarization, HIV-1, dose response (AID 434976); design: species or system Human immunodeficiency virus 1
T7 sequence (P04618 whole entry): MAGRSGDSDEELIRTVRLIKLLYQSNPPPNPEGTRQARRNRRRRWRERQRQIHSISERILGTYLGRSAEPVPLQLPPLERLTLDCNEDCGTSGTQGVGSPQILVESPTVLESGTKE

COCC(=O)Nc1nnc(-c2cccs2)s1
EC50 [1]: 6.26 µM (active)

CCOC(=O)c1cc2sccc2n1Cc1ccccc1
IC50 [2]: > 100 µM (not active)

O=C1/C(=N\c2ccc(O)cc2)C=C(O)c2ccccc21
IC50 [3]: 23.7 µM (active) | AC50 (INS1): 6.8 µM (active) | IC50 [4]: 5.1 µM (not active) | IC50 [5]: 2.02 µM (active) | CC50 [6]: 100 µM (active) | EC50 [7]: 3.81 µM (active) | EC50 [8]: > 120 µM (not active) | EC50 [9]: 4.34 µM (active) | AC50 [10]: 3.88 µM (active) | EC50 (Protein RecA): 3.57 µM (active)

COC(=O)NC(c1ccccc1)C(C(=O)OC)C(=O)OC (stereo not given)
AC50 (Cytochrome P450 3A4): 3.16 µM (inconclusive) | AC50 (Cytochrome P450 2C19): 5.01 µM (inconclusive)

CCn1c(CSc2nccn2C)nc2cc(C(=O)O)ccc21
IC50 [11]: 36.7 µM (inactive) | AC50 [12]: > 100 µM (inactive) | IC50 [13]: 62.1 µM (inactive) | IC50 [14]: 14.9 µM (inactive) | IC50 (14-3-3 protein gamma): > 50 µM (not active) | IC50 (Protein Rev): 19.7 µM (not active)
